biological target: Cannabinoid receptor 2 (Homo sapiens, UniProt P34972); assay: Inverse agonist activity at human CB2 receptor expressed in HEK293 cells assessed as […] after 30 mins by HTRF assay
Sequence (P34972 whole entry): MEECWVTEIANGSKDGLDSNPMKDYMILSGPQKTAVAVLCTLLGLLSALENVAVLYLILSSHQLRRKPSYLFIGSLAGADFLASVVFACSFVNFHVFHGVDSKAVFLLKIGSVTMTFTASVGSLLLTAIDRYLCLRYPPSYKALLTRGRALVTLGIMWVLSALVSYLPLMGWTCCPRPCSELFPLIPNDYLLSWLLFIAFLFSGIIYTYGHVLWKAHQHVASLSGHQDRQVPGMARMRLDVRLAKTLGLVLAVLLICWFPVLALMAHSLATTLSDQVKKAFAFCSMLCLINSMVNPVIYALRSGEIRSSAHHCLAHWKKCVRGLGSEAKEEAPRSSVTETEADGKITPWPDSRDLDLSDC

Compound	EC50
O=S(=O)(N1CCC(Nc2ccnc3c(O)cc(C(c4ccc(Cl)cc4)c4ccc(Cl)cc4)cc23)CC1)C(F)(F)F [US9266835, 541]	> 10 µM
COCCOc1cc(NC2CCN(S(=O)(=O)C(F)(F)F)CC2)c2cc(C(c3ccc(Cl)cc3)c3ccc(Cl)cc3)ccc2n1 [US9266835, 530]	> 10 µM
NCCCCOc1cc(C(c2ccc(Cl)cc2)c2ccc(Cl)cc2)cc2c(NC3CCN(S(=O)(=O)C(F)(F)F)CC3)ccnc12 [US9266835, 542]	> 10 µM
Cn1c(=O)cc(NC2CCN(S(=O)(=O)C(F)(F)F)CC2)c2cc(C(c3ccc(Cl)cc3)c3ccc(Cl)cc3)ccc21 [US9266835, 49]	> 10 µM

More lines, now with the values ahead:

EC50	Compound
> 10 µM	O=C(O)c1ccc(CN2CCC(Nc3cc(=O)[nH]c4ccc(C(c5ccc(Cl)cc5)c5ccc(Cl)cc5)cc34)CC2)cc1 [US9266835, 127]
> 10 µM	O=C(O)c1cccc(CN2CCC(Nc3cc(=O)[nH]c4ccc(C(c5ccc(Cl)cc5)c5ccc(Cl)cc5)cc34)CC2)c1 [US9266835, 129]
> 10 µM	O=C(O)c1ccc(C(=O)N2CCC(Nc3cc(=O)[nH]c4ccc(C(c5ccc(Cl)cc5)c5ccc(Cl)cc5)cc34)CC2)cc1 [US9266835, 116]
> 10 µM	O=c1cc(NC2CCN(S(=O)(=O)c3ccccc3)CC2)c2cc(C(c3ccc(Cl)cc3)c3ccc(Cl)cc3)ccc2[nH]1 [US9266835, 80]
